This is an account of results in ChEMBL document CHEMBL1201862, “PubChem BioAssay data set” (2004).

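48-hour exposure; five concentrations; linearly interpolated endpoints. Here, GI50 denotes the concentration required for 50% inhibition of growth.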 Calls of active or inactive are those of the source. Cut-off read from the data, not from the text of the source: active = GI50 up to about 1.1 µM and inactive = higher.

Experiment in all cases: NCI-60 cell line screen, 48 h
For assay [1], the system named is M19-MEL.
In assay [2] the test system is MDA-MB-231.
Assay [3] concerns DU-145.
The subject of assay [4] is MDA-N.
Assay [5] has as its system BT-549.
Assay [6] concerns Hs-578T.
The subject of assay [7] is LXFL 529.
Assay [8] has as its system RXF 631.

Take `Cn1c(=O)[nH]c2nncnc2c1=O`: the GI50 in assay [1] was 43.7 µM (inactive).
In the case of `Nc1cccc2c1C1=NNC(=O)CC1C2` (stereo not drawn), the GI50 in assay [1] was > 100 µM (inactive).
On to `C[C@]12CC[C@@H]3c4ccc(OCCN5CCCC5)cc4CC[C@H]3[C@@H]1CCC2=O`, for which the GI50 in assay [2] is 24.5 µM (inactive); in assay [3] it was 47.9 µM (inactive); in assay [4] it was 22 µM (inactive).
For the molecule `NC(CCP(=O)(O)CCC1C=CC=CC1)C(=O)O` (stereo not drawn), the GI50 in assay [5], in assay [2], in assay [3], in assay [4] and in assay [6] was > 100 µM (inactive) throughout.
Consider `CSc1nc(NC2OC(CO)C(O)C(O)C2O)c(N)c(=O)[nH]1` (stereo not drawn), for which the GI50 in assay [1] was > 100 µM (inactive).
The same measure, in the same setting: the value for `COc1ccc2c(c1O)-c1cc(O)cc3c1[C@@H](C2)N(C)CC3` was 67.8 µM (inactive).
As to `COc1ccc(C2SCc3nc4ccccc4n32)cc1` (stereo not drawn), the figures for the GI50 in assay [1], in assay [7] and in assay [8] were 3.95 µM (inactive), 5.48 µM (inactive) and 7.26 µM (inactive), respectively.
Take `O=C(c1ccccc1)c1ccc2n[se]nc2c1`: the GI50 is 69.8 µM (inactive) in assay [7] and 18.8 µM (inactive) in assay [8].
With `COc1cc(-c2cc(=O)c3c(O)c(CC=C(C)C)c(O)cc3o2)ccc1O`, the GI50 in assay [5] was 21.6 µM (inactive); in assay [2], 43.5 µM (inactive); in assay [3], 32.9 µM (inactive); in assay [4] it was 8.49 µM (inactive); in assay [6] it was 29.5 µM (inactive).
`CCOC(=O)CCC(NC(=O)OCc1ccccc1)C(=O)NC(CCC(=O)OCC)C(=O)NNC(=O)OC(C)(C)C` (stereo not drawn): the GI50 in assay [5], in assay [3], in assay [4] and in assay [6] was > 100 µM (inactive) in each case.
`Cc1ccc(C)c(C(=O)CC2OC(O)C(Cl)C2Cl)c1` (stereo not drawn): the GI50 is 72.3 µM (inactive) in assay [1] and 17.4 µM (inactive) in assay [7].
Consider `CCOC(=O)CSc1nc(N)c2c(-c3ccc(OC)c(OC)c3)c3c(nc2n1)CCCC3`, for which the GI50 in assay [5] was 61.9 µM (inactive); in assay [2], 43 µM (inactive); in assay [3], > 100 µM (inactive); in assay [4] it was > 100 µM (inactive); in assay [6], 17.1 µM (inactive).
Regarding `O=C1c2cccc3cc4ccccc4c(c23)C(=O)N1CCNCCNCCNCCN1C(=O)c2cccc3cc4ccccc4c(c23)C1=O`, the GI50 in assay [1] was < 0.01 µM (active).
For the molecule `O=C(Nc1ccccc1F)c1c(O)nc2sccn2c1=O`, the GI50 in assay [2], in assay [3], in assay [4] and in assay [6] was > 10 µM (inactive) in each case.
